This is an account of results in the RepoRT retention time repository.

The data set in a line: HILIC, Waters ACQUITY UPLC BEH Amide, 100 × 2.1 mm, 1.7 µm; A: water + 0.125% formic acid + 10 mM ammonium formate; B: 5% water + 95% acetonitrile + 0.125% formic acid + 10 mM ammonium formate; gradient (min/%B) 0/100 2/100 7.7/70 9.5/40 10.25/30 12.75/100 17/100. As to conditions: stereoisomer not certain.

Consider `CCN(CC)CCOC(=O)C(O)(c1ccccc1)c1ccccc1` [Benactyzine], for which the LC retention time was 2.16 min. Then `CCOC(=O)C(CCc1ccccc1)NC1CCc2ccccc2N(CC(=O)O)C1=O` (stereo unspecified) [Benazepril], with 1.33 min; and `COC(=O)C1=C(C)NC(C)=C(C(=O)OC2CCCN(Cc3ccccc3)C2)C1c1cccc([N+](=O)[O-])c1` (stereo unspecified) [Benidipine], with 1.46 min. The value for `CC(COc1ccccc1Cc1ccccc1)N1CCCCC1` (stereo unspecified) [Benproperine] was 1.99 min; that for `NC(=O)c1ccccc1` [Benzamide] was 1.27 min.

Take `c1ccc2scnc2c1` [Benzothiazole]: the LC retention time was 1.11 min. Then `CN1C2CCC1C(C(=O)O)C(OC(=O)c1ccccc1)C2` (stereo unspecified) [Benzoylecgonine], with 3.63 min; and `CC(Cc1ccccc1)N(C)Cc1ccccc1` (stereo unspecified) [Benzphetamine], with 2.03 min; and `CC(=O)OCc1ccccc1` [Benzylacetate], with 8.71 min.

For the molecule `CC(C)CC(NC(=O)C(O)C(N)Cc1ccccc1)C(=O)O` (stereo unspecified) [Bestatin], the LC retention time was 5.98 min. The value for `C[N+](C)(C)CC(=O)[O-]` [Betaine] was 7.24 min.

`CC(C)NCC(O)COc1ccc(CCOCC2CC2)cc1` (stereo unspecified) [Betaxolol]: the LC retention time is 3.05 min. On to `CC(O)(CS(=O)(=O)c1ccc(F)cc1)C(=O)Nc1ccc(C#N)c(C(F)(F)F)c1` (stereo unspecified) [Bicalutamide], for which the LC retention time was 0.99 min. Then `CNCCCCOc1ccccc1Cc1ccccc1` [Bifemelane], with 2.46 min; and `c1ccc(-c2ccc(C(c3ccccc3)n3ccnc3)cc2)cc1` (stereo unspecified) [Bifonazole], with 1.19 min; and `O=C1CC2(CCCC2)CC(=O)N1CCNCC1COc2ccccc2O1` (stereo unspecified) [Binospirone], with 1.8 min.

With `O=C(O)CCCCC1SCC2NC(=O)NC21` (stereo unspecified) [Biotin], the LC retention time was determined as 2.85 min. Regarding `CC(C)NCC(O)COc1ccc(COCCOC(C)C)cc1` (stereo unspecified) [Bisoprolol], the LC retention time turned out to be 3.47 min. The value for `NC(=O)NC(N)=O` [Biuret] was 2.73 min; that for `O=C1CN=C(c2ccccn2)c2cc(Br)ccc2N1` [Bromazepam] was 1.3 min. Then `COc1cc2c(cc1OC)C13CCN4CC5=CCOC6CC(=O)N2C1C6C5CC43` (stereo unspecified) [Brucine], with 4.57 min; and `COc1cc(OC)c(C(=O)CCCN2CCCC2)c(OC)c1` [Buflomedil], with 2.34 min.

Take `CC(NC(C)(C)C)C(=O)c1cccc(Cl)c1` (stereo unspecified) [Bupropion]: the LC retention time is 2.22 min. Then `CCCC(=O)O` [Butanoic acid], with 10.2 min; and `CCCC(=O)NCC(=O)O` [Butyrylglycine], with 3.73 min. Then `NCCCCCN` [Cadaverine], with 8.99 min; and `Cn1c(=O)c2c(ncn2C)n(C)c1=O` [Caffeine], with 1.21 min; and `c1ccc2c(-c3nccs3)c[nH]c2c1` [Camalexin], with 1.05 min. On to `NC(N)=NOCCC(N)C(=O)O` (stereo unspecified) [Canavanine], for which the LC retention time worked out at 9.42 min. For the molecule `COc1cc(CNC(=O)CCCCC=CC(C)C)ccc1O` [Capsaicin], the LC retention time turned out to be 1 min. Then `NC(=O)N1c2ccccc2C=Cc2ccccc21` [Carbamazepine], with 1.21 min; and `NC(CSCC(=O)O)C(=O)O` (stereo unspecified) [Carbocysteine], with 9.04 min; and `CC(Cc1ccc(C(C)C(=O)O)cc1)C(=O)O` (stereo unspecified) [Carboxyibuprofen], with 1.11 min.

Take `C[N+](C)(C)CC(O)CC(=O)[O-]` (stereo unspecified) [Carnitine]: the LC retention time was 7.83 min. Then `NCCC(=O)NC(Cc1cnc[nH]1)C(=O)O` (stereo unspecified) [Carnosine], with 9.54 min; and `COc1ccccc1OCCNCC(O)COc1cccc2[nH]c3ccccc3c12` (stereo unspecified) [Carvedilol], with 3.17 min.
